From patent US7645740B2, “Peptide sequence found in Laminin 5 for treating skin impairments” (Laboratoires d'Anjou Centre National de la Recherche …, priority 2004, dated 2010)

What was measured:
[1] = Quantity of peptide immobilized on 96-well plates by amino acid analysis; conditions: 18 hours at +4° C.
Experimental: The peptide was diluted in sterile PBS. Samples containing the peptide to be assayed were lyophilized by evaporation. They were deposited in a reactor and placed under vacuum in order to eliminate oxygen likely to oxidize certain amino acids. Hydrolysis of the peptide bonds was carried out in a hydrochloric acid mixture (HCL 6N, ⅔), trifluoroacetic acid (TFA, ⅓) at 150° C. for 45 minutes. Gas hydrolysis prevented contamination by ions present in the acids. The samples were then dried and dissolved in a suitable buffer for ion-exchange chromatography (sodium citrate). Ion-exchange chromatography makes it possible to separate amino acids according to their ionic strength and, on leaving the column, they react with a reagent (ninhydrin) to form a dyed complex with primary amines (violet, readable at 570 nm). Ninhydrin also reacts with secondary amines (proline, hydroxyproline) to form a yellow compound that can be read at 440 nm. Two separate chromatograms allow the samples to be analysed.
A semi-automatic Beckman 6300 analyser optimised for this analysis was used along with Beckman Gold software in order to quantify the chromatograms. […]
FIG. 17 gives the data obtained in the experiments aimed at identifying the assay conditions for the peptide deposited in 96-well plates and not immobilized. Five experiments were carried out with decreasing quantities of peptide, from 5 μg to 0.7 μg. […]

[2] = test system: NHKs; test: Cell adhesion of NHKs to peptides co-immobilized with laminin 5; assay type: cell-based, human
Experimental: (§1) Peptides 1, 2 and 3 (variable quantities indicated) and laminin 5 (fixed quantity 0.2 mg) were co-immobilized in 96-well plates. 5×104 NHKs were deposited in each well and plates were incubated at 37° C. for 1 hour. After washing, attached cells were fixed and cell adhesion was measured as described in the methodology section. Cell adhesion in the presence of the peptide is given as a percentage of cell adhesion obtained with laminin 5 alone. Cells were observed by phase contrast microscopy then photographed. Bar=50 μm.
(§2) A decreasing range of LN5 (prepared in the laboratory) and COL4 (BD Biosciences, Le Pont de Claix, France) quantities was made up by successive dilution in PBS. These solutions were immediately distributed into a 96-well culture plate (Costar) at a rate of 100 μl per well. The experiment was conducted in exactly the same way as the experiment described in example 2. The results are given in the form of a graph with the absorbance values representing adhesion on the ordinate and the various substrate concentrations on the abscissa. Attached cells were photographed by phase contrast microscopy.
In order to analyse the effect of the peptide on cell adhesion to DEJ proteins, peptide TALRIRATYGEY (SEQ ID NO.1) (peptide 1) was co-immobilized with LN5 (FIG. 14) and COL4 (FIG. 15). The fixed quantity of matrix protein (LN5 and COL4) and the variable quantity of peptide are given on the graph (FIGS. 14 and 15). Peptides 2 and 3 (described in example 1) were used as controls for the experiment. The adhesion tests were carried out with NHK under the same conditions as the experiment given in FIG. 13 (50,000 cells per well). A peptide-free control representing 100% adhesion (LN5 only and COL4 only) was used to allow analysis of the effect of adhesion relating to the presence of the peptide. The results are given as a percentage of this control.

[3] = test system: NHKs; test: Cell adhesion of NHKs to peptide co-immobilized with collagen IV; assay type: cell-based, human; conditions: collagen IV fixed quantity 0.06 mg, 50,000 cells per well, percentage of COL4 alone
Experimental: as §1, with “collagen IV” for “laminin 5”, “0.06” for “0.2”
as §2, with “Attached cells were photographed by phase contrast microscopy.” left out
In order to analyse the effect of the peptide on cell adhesion to DEJ proteins, peptide TALRIRATYGEY (SEQ ID NO.1) (peptide 1) was co-immobilized with LN5 (FIG. 14) and COL4 (FIG. 15). The fixed quantity of matrix protein (LN5 and COL4) and the variable quantity of peptide are given on the graph (FIGS. 14 and 15). […]

TALRIRATYGEY (Human laminin 5) [Peptide 1]
quantity of peptide remaining in the supernatant after immobilization, of quantity added ([1]; 3.55 μg, 2.56 μg, 1.23 μg and 0.73 μg deposited): approximately 90% | mean quantity remaining in solution in the wells ([1]; Q1, average starting quantity 2.44 μg, five supernatants): 2.212 µg | effect on adhesion of NHKs to LN5 (co-immobilized) ([2]; laminin 5 fixed quantity 0.2 mg, 50,000 cells per well, percentage of LN5 alone): gradual and significant increase | change of adhesion to LN5, on average ([2]; peptide quantity of 0.21 to 0.87 μg/well, LN5 alone = 100%): doubled | effect on adhesion of keratinocytes to COL4 (co-immobilized) [3]: no significant effect
